Values quoted from earlier work, collected in patent US10905651B1, “Zeinmersome nanocarriers for drug delivery to the liver” (King Abdulaziz University, priority 2020, dated 2021).

Details: cited from earlier work

For `CCCc1nc(C(C)(C)O)c(C(=O)O)n1Cc1ccc(-c2ccccc2-c2nnn[nH]2)cc1` [olmesartan], the “oral bioavailability of olmesartan” value (Kobayashi et al. 2000) is listed as 4.5% and the “volume of distribution (Vd)” value (following IV administration) is listed as 15 to 25 L.
